Data taken from PubChem BioAssay AID248 (DTP/NCI, 2004).
Where “and” joins values, the source holds several entries; their conditions need not be identical. Identical values can stand only once. Inconclusive results and toxic doses are left out. No stated cut-off is given here; in the data, active means T/C of 150% or more; inactive means T/C below 125%.

System: L1210 leukemia ip in BDF1 mice, survival T/C
Test: NCI In Vivo Anticancer Drug Screen. Data for tumor model L1210 Leukemia (intraperitoneal) in B6D2F1 (BDF1) mice
Conditions: endpoint: mean survival time, higher = longer survival
Outline: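 Read-out is survival time, reported as the treated-group measurement over the vehicle-control measurement.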

[1] = dose: 100.0 mg/kg/injection, schedule: Q04DX002 (ip), vehicle: Klucel (hydroxypropylcellulose) (HPC)
[2] = dose: 200.0 mg/kg/injection, schedule: Q04DX002 (ip), vehicle: Klucel (hydroxypropylcellulose) (HPC)
[3] = dose: 400.0 mg/kg/injection, schedule: Q04DX002 (ip), vehicle: Klucel (hydroxypropylcellulose) (HPC)
[4] = dose: 100.0 mg/kg/injection, schedule: Q04DX003 (ip), vehicle: saline with Tween-80
[5] = dose: 200.0 mg/kg/injection, schedule: Q04DX003 (ip), vehicle: saline with Tween-80
[6] = dose: 400.0 mg/kg/injection, schedule: Q04DX003 (ip), vehicle: saline with Tween-80
[7] = dose: 100.0 mg/kg/injection, schedule: Q04DX003 (ip), vehicle: carboxymethylcellulose (CMC)
[8] = dose: 200.0 mg/kg/injection, schedule: Q04DX003 (ip), vehicle: carboxymethylcellulose (CMC)
[9] = dose: 100.0 mg/kg/injection, schedule: Q01DX009 (ip), vehicle: saline
[10] = dose: 400.0 mg/kg/injection, schedule: Q01DX009 (ip), vehicle: saline
[11] = dose: 50.0 mg/kg/injection, schedule: Q01DX009 (ip), vehicle: Klucel (hydroxypropylcellulose) (HPC)
[12] = dose: 100.0 mg/kg/injection, schedule: Q01DX009 (ip), vehicle: Klucel (hydroxypropylcellulose) (HPC)
[13] = dose: 100.0 mg/kg/injection, schedule: Q04DX003 (ip), vehicle: Klucel (hydroxypropylcellulose) (HPC)
[14] = dose: 200.0 mg/kg/injection, schedule: Q04DX003 (ip), vehicle: Klucel (hydroxypropylcellulose) (HPC)

Measured: T/C

O=C(Nc1ccc(Br)cc1)C(Br)C(Br)c1ccccc1 (configuration not stated)
inactive: [1] 98 % of control | [2] 88 % of control | [3] 98 % of control

CCCCCc1cnc(NCCCC(N)C(=O)O)nc1 (configuration not stated)
inactive: dose: 25.0 mg/kg/injection, schedule: Q04DX002 (ip), vehicle: saline with Tween-80 95 % of control | dose: 50.0 mg/kg/injection, schedule: Q04DX002 (ip), vehicle: saline with Tween-80 95 % of control | dose: 100.0 mg/kg/injection, schedule: Q04DX002 (ip), vehicle: saline with Tween-80 95 % of control

O=C(CC(O)(C(F)(F)F)C(F)(F)F)c1ccccc1Br
inactive: [4] 97 % of control | [5] 97 % of control | [6] 95 % of control

OCc1cc2ccccc2c2ccccc12
inactive: dose: 222.0 mg/kg/injection, schedule: Q01DX Z (ip), vehicle: carboxymethylcellulose (CMC) 96 % of control | dose: 330.0 mg/kg/injection, schedule: Q01DX Z (ip), vehicle: carboxymethylcellulose (CMC) 90 % of control | dose: 500.0 mg/kg/injection, schedule: Q01DX Z (ip), vehicle: carboxymethylcellulose (CMC) 93 % of control | dose: 750.0 mg/kg/injection, schedule: Q01DX Z (ip), vehicle: carboxymethylcellulose (CMC) 88 % of control

O=C(Cc1cnccn1)c1ccc(C(=O)Cc2cnccn2)cc1
inactive: [7] 94 % of control | [8] 103 % of control | dose: 400.0 mg/kg/injection, schedule: Q04DX003 (ip), vehicle: carboxymethylcellulose (CMC) 102 % of control

COc1ccc(OC)c(NC(=O)c2ccc(N(CCc3cnc4nc(NC(C)=O)[nH]c(=O)c4n3)C(=O)C(F)(F)F)cc2)c1
inactive: dose: 100.0 mg/kg/injection, schedule: Q01DX009 (ip), vehicle: carboxymethylcellulose (CMC) 104 % of control | dose: 100.0 mg/kg/injection, schedule: Q04DX003 (ip), vehicle: other 97 % of control | dose: 200.0 mg/kg/injection, schedule: Q01DX009 (ip), vehicle: carboxymethylcellulose (CMC) 94 % of control | dose: 200.0 mg/kg/injection, schedule: Q04DX003 (ip), vehicle: other 97 % of control | dose: 400.0 mg/kg/injection, schedule: Q01DX009 (ip), vehicle: carboxymethylcellulose (CMC) 94 % of control | dose: 400.0 mg/kg/injection, schedule: Q04DX003 (ip), vehicle: other 92 % of control

NC(=O)Cn1cnc2c(=S)nc[nH]c21
inactive: dose: 6.25 mg/kg/injection, schedule: Q01DX009 (ip), vehicle: saline with Tween-80 109 % of control | dose: 12.5 mg/kg/injection, schedule: Q01DX009 (ip), vehicle: saline with Tween-80 104 % of control | dose: 12.5 mg/kg/injection, schedule: Q04DX003 (ip), vehicle: saline with Tween-80 104 % of control | dose: 25.0 mg/kg/injection, schedule: Q01DX009 (ip), vehicle: saline with Tween-80 101 % of control | dose: 25.0 mg/kg/injection, schedule: Q04DX003 (ip), vehicle: saline with Tween-80 102 % of control

O=S(=O)(Oc1ccc(Cl)cc1)c1ccc(Cl)cc1
inactive: [9] 88 % of control | dose: 100.0 mg/kg/injection, schedule: Q04DX003 (ip), vehicle: saline 103 % of control | dose: 200.0 mg/kg/injection, schedule: Q04DX003 (ip), vehicle: saline 98 % of control | [10] 90 % of control | dose: 400.0 mg/kg/injection, schedule: Q04DX003 (ip), vehicle: saline 103 % of control

CCOC(=O)c1ccc(=O)n(C)c1
inactive: [9] 102 % of control | dose: 200.0 mg/kg/injection, schedule: Q01DX009 (ip), vehicle: saline 96 % of control | [10] 98 % of control

Cc1cc(C)c(C(=O)C(=S)N2CCOCC2)c(C)c1
inactive: dose: 200.0 mg/kg/injection, schedule: Q01DX009 (ip), vehicle: acetone 90 % of control | dose: 400.0 mg/kg/injection, schedule: Q01DX009 (ip), vehicle: acetone 96 % of control

C=CCOCC(O)CN(CC)c1ccccc1 (configuration not stated)
inactive: [11] 95 % of control | [12] 96 % of control | [13] 100 % of control | dose: 200.0 mg/kg/injection, schedule: Q01DX009 (ip), vehicle: Klucel (hydroxypropylcellulose) (HPC) 94 % of control and 102 % of control | [14] 102 % of control | dose: 400.0 mg/kg/injection, schedule: Q01DX009 (ip), vehicle: Klucel (hydroxypropylcellulose) (HPC) 90 % of control | dose: 400.0 mg/kg/injection, schedule: Q04DX003 (ip), vehicle: Klucel (hydroxypropylcellulose) (HPC) 100 % of control

Brc1ccc(C[n+]2ccccc2)cc1
inactive: dose: 12.5 mg/kg/injection, schedule: Q04DX003 (ip), vehicle: saline 98 % of control | dose: 18.75 mg/kg/injection, schedule: Q01DX009 (ip), vehicle: saline 93 % of control | dose: 25.0 mg/kg/injection, schedule: Q04DX003 (ip), vehicle: saline 97 % of control | dose: 37.5 mg/kg/injection, schedule: Q01DX009 (ip), vehicle: saline 91 % of control | dose: 50.0 mg/kg/injection, schedule: Q04DX003 (ip), vehicle: saline 105 % of control | dose: 75.0 mg/kg/injection, schedule: Q04DX003 (ip), vehicle: saline 92 % of control

OCC1(c2ccccc2)CCCC1(CO)c1ccccc1 (configuration not stated)
inactive: dose: 15.0 mg/kg/injection, schedule: Q01DX001 (ip), vehicle: carboxymethylcellulose (CMC) 95 % of control | dose: 30.0 mg/kg/injection, schedule: Q01DX001 (ip), vehicle: carboxymethylcellulose (CMC) 93 % of control | dose: 60.0 mg/kg/injection, schedule: Q01DX001 (ip), vehicle: carboxymethylcellulose (CMC) 91 % of control

O=C(N/N=C\c1ccc(-c2ccccc2)cc1)N/N=C/c1ccc(-c2ccccc2)cc1
inactive: [7] 90 % of control | [8] 87 % of control

COc1ccc2nonc2c1
inactive: dose: 100.0 mg/kg/injection, schedule: Q01DX001 (ip), vehicle: other 100 % of control | dose: 200.0 mg/kg/injection, schedule: Q01DX001 (ip), vehicle: other 110 % of control

CCN(CC)c1ccc(NC(=O)NC(C)C)cc1
inactive: dose: 50.0 mg/kg/injection, schedule: Q01DX009 (ip), vehicle: saline with Tween-80 101 % of control | dose: 100.0 mg/kg/injection, schedule: Q01DX009 (ip), vehicle: saline with Tween-80 108 % of control | [4] 105 % of control | dose: 200.0 mg/kg/injection, schedule: Q01DX009 (ip), vehicle: saline with Tween-80 97 % of control | [5] 103 % of control

CCCCCCCCCCCC(=O)N/N=C(\C)c1cccc2ccccc12
inactive: dose: 25.0 mg/kg/injection, schedule: Q01DX009 (ip), vehicle: Klucel (hydroxypropylcellulose) (HPC) 92 % of control | [11] 96 % of control | [12] 88 % of control and 92 % of control

CCCNS(=O)(=O)c1ccc(Cl)c([N+](=O)[O-])c1
inactive: dose: 12.5 mg/kg/injection, schedule: Q04DX003 (ip), vehicle: Klucel (hydroxypropylcellulose) (HPC) 100 % of control | dose: 25.0 mg/kg/injection, schedule: Q04DX003 (ip), vehicle: Klucel (hydroxypropylcellulose) (HPC) 97 % of control | dose: 50.0 mg/kg/injection, schedule: Q04DX003 (ip), vehicle: Klucel (hydroxypropylcellulose) (HPC) 100 % of control | [13] 98 % of control | [14] 103 % of control

CCCCN(C)N=Nc1ccc(C(N)=O)cc1
inactive: dose: 20.0 mg/kg/injection, schedule: Q01DX Z (ip), vehicle: carboxymethylcellulose (CMC) 98 % of control | dose: 40.0 mg/kg/injection, schedule: Q01DX Z (ip), vehicle: carboxymethylcellulose (CMC) 101 % of control | dose: 60.0 mg/kg/injection, schedule: Q01DX Z (ip), vehicle: carboxymethylcellulose (CMC) 104 % of control

O=S(=O)(CCS(=O)(=O)c1ccccc1)c1ccccc1
inactive: dose: 50.0 mg/kg/injection, schedule: Q01DX009 (ip), vehicle: saline 94 % of control | [1] 92 % of control | dose: 150.0 mg/kg/injection, schedule: Q01DX009 (ip), vehicle: saline 97 % of control | [2] 92 % of control | [3] 88 % of control

CC(C)=C1N=C(c2ccccc2)OC1=O
inactive: [1] 97 % of control | [2] 111 % of control | [3] 111 % of control

N#Cc1csc(CCNC(=O)c2ccccc2)n1
inactive: dose: 100.0 mg/kg/injection, schedule: Q01DX001 (ip), vehicle: saline with Tween-80 105 % of control | [4] 100 % of control | dose: 200.0 mg/kg/injection, schedule: Q01DX001 (ip), vehicle: saline with Tween-80 104 % of control | [5] 93 % of control | dose: 400.0 mg/kg/injection, schedule: Q01DX001 (ip), vehicle: saline with Tween-80 93 % of control | [6] 94 % of control
